Measurements published in ChEMBL document CHEMBL1201862, “PubChem BioAssay data set” (2004).
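Tested at 5 concentrations; 48 h exposure; 96-well plates; endpoints linearly interpolated, else capped at highest concentration. GI50 is the concentration that inhibits growth by half.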 Calls of active or inactive are those of the source. No stated cut-off is given here; in the data, active = GI50 up to about 1.1 µM and inactive = higher.

Columns and labels:
Experiment in all cases: NCI anticancer screen, dose series, 48 h
[1] = system: 786-0
[2] = system: A549
[3] = system: ACHN
[4] = system: HCC 2998
[5] = system: HCT-116
[6] = system: HT-29
[7] = system: IGROV-1
[8] = system: LOX IMVI
[9] = system: M14
[10] = system: NCI-H460
[11] = system: OVCAR-3
[12] = system: OVCAR-5
[13] = system: SF-268
[14] = system: SF-539
[15] = system: SK-MEL-5
[16] = system: SNB-75
[17] = system: SR
[18] = system: UACC-62

SMILES | GI50 [1] | GI50 [2] | GI50 [3] | GI50 [4] | GI50 [5] | GI50 [6] | GI50 [7] | GI50 [8] | GI50 [9] | GI50 [10] | GI50 [11] | GI50 [12] | GI50 [13] | GI50 [14] | GI50 [15] | GI50 [16] | GI50 [17] | GI50 [18]
O=c1oc2c(O)c(O)cc3c(=O)oc4c(O)c(O)cc1c4c23 [ELLAGIC ACID] | 27.2 µM (inactive) | 68.2 µM (inactive) | 45.8 µM (inactive) | > 10 µM (inactive) | 92 µM (inactive) | > 10 µM (inactive) | 45.4 µM (inactive) | 93.5 µM (inactive) | 18.5 µM (inactive) | 53.5 µM (inactive) | 29.9 µM (inactive) | > 10 µM (inactive) | 56.5 µM (inactive) | > 10 µM (inactive) | > 10 µM (inactive) | 32.4 µM (inactive) | 71.1 µM (inactive) | 40.8 µM (inactive)
Cc1cc(NCCCCCCCCNc2cc(C)nc3cc(N(C)C)ccc23)c2ccc(N(C)C)cc2n1 | 7.16 µM (inactive) | 3.31 µM (inactive) | 12.3 µM (inactive) | 4.3 µM (inactive) | 3.4 µM (inactive) |  |  | 2.37 µM (inactive) | 3.73 µM (inactive) | 3.01 µM (inactive) | 3.86 µM (inactive) |  | 3.48 µM (inactive) | 3.23 µM (inactive) |  |  | 2.82 µM (inactive) | 
COc1cc(C(O)C(=O)c2cnc3cc([N+](=O)[O-])ccc3n2)ccc1O (stereo unspecified) | > 100 µM (inactive) | > 100 µM (inactive) | > 100 µM (inactive) | > 100 µM (inactive) | > 100 µM (inactive) | > 100 µM (inactive) | > 100 µM (inactive) | 77.8 µM (inactive) | > 100 µM (inactive) | > 100 µM (inactive) |  |  |  | > 100 µM (inactive) | > 100 µM (inactive) | > 100 µM (inactive) | > 100 µM (inactive) | 62.1 µM (inactive)
CCCCCCCCCCCCCCCCCCCCCC(=O)Nc1ccn(C2OC(CO)C(O)C2O)c(=O)n1 (stereo unspecified) | 9.62 µM (inactive) | 4.68 µM (inactive) | 5.2 µM (inactive) | > 100 µM (inactive) | 6.89 µM (inactive) | > 100 µM (inactive) | > 68.9 µM (inactive) | 9.89 µM (inactive) | 4.91 µM (inactive) | 2.32 µM (inactive) | > 100 µM (inactive) | > 61 µM (inactive) | 18.4 µM (inactive) | > 100 µM (inactive) | 29 µM (inactive) | > 83.6 µM (inactive) | 1.67 µM (inactive) | 33.6 µM (inactive)
C=C1C2CC(OC(C)=O)C3(C)C(c4ccoc4)OC(=O)[C@@H](O)[C@]13OC1C[C@H](OC(C)=O)C(C)(C)[C@H](C(O)C(=O)OC)[C@]12C (stereo partly specified) | > 100 µM (inactive) | > 100 µM (inactive) | > 100 µM (inactive) | > 100 µM (inactive) | > 100 µM (inactive) | > 100 µM (inactive) | > 100 µM (inactive) | > 100 µM (inactive) | > 100 µM (inactive) | > 100 µM (inactive) | > 100 µM (inactive) |  |  | > 100 µM (inactive) | > 100 µM (inactive) | 29.9 µM (inactive) |  | > 100 µM (inactive)
NNC(=O)C(=O)N/N=C1\CCC(=O)CC1C(=O)CCC(=O)Nc1ccc(Cl)cc1 (stereo unspecified) | > 100 µM (inactive) | > 100 µM (inactive) | > 100 µM (inactive) | > 100 µM (inactive) | > 100 µM (inactive) | > 100 µM (inactive) | > 100 µM (inactive) | > 100 µM (inactive) | > 100 µM (inactive) | > 100 µM (inactive) | 95.3 µM (inactive) | > 100 µM (inactive) | > 100 µM (inactive) | > 100 µM (inactive) | > 100 µM (inactive) | 39.4 µM (inactive) |  | > 100 µM (inactive)
COc1ccc(-c2cc(O)c3ccc(F)cc3n2)cc1 | > 100 µM (inactive) | > 100 µM (inactive) | > 100 µM (inactive) | > 100 µM (inactive) | > 100 µM (inactive) | > 100 µM (inactive) | > 100 µM (inactive) | > 100 µM (inactive) | > 100 µM (inactive) | > 100 µM (inactive) | > 100 µM (inactive) | > 100 µM (inactive) | 23.5 µM (inactive) | > 100 µM (inactive) | > 100 µM (inactive) | > 100 µM (inactive) | > 100 µM (inactive) | > 100 µM (inactive)
COc1cc(/C=C\c2ccc(Cl)cc2)cc(OC)c1OC | 0.113 µM (active) | 0.196 µM (active) | 1.38 µM (inactive) | 1.73 µM (inactive) | 0.0652 µM (active) | 0.0459 µM (active) | 1.08 µM (active) | 0.175 µM (active) | 0.0647 µM (active) | 0.221 µM (active) | 0.102 µM (active) | 26.3 µM (inactive) | 0.843 µM (active) | 0.147 µM (active) | 0.025 µM (active) | 0.188 µM (active) | 0.0652 µM (active) | 0.0885 µM (active)
